Results from patent US9725437B2, “Fatty acid synthase inhibitors” (GlaxoSmithKline Intellectual Property (No.2) Limited, priority 2013, dated 2017).

Columns and labels:
[1] = Rat pharmacokinetic study (iv clearance, oral exposure); type: in vivo; conditions: for Rat iv CI: in vivo clearance, average of 1 to 4 animals; for Rat po DNAUC: dose-normalized AUC, 2-3 animals per experiment
Procedure: (§1) Mouse and rat pharmacokinetic studies were performed generally as described in Xiang et al. (Preclinical drug metabolism and pharmacokinetic evaluation of GW844520, a novel mitochondrial electron transport inhibitor. H Xiang, J McSurdy-Freed, G Subbanagounder, E Hugger, R Bambal, C Han, S Ferrar, D Gargallo and CB Davis. (2006) Journal of Pharmaceutical Sciences, 95:2657-2672) and Davis et al. (Comparative preclinical drug metabolism and pharmacokinetic evaluation of novel 4-aminoquinoline anti-malarials. C B Davis, R Bambal, G S Moorthy, E Hugger, H Xiang, B Kevin Park, A E Shone, P M O'Neill and S A Ward (2009) Journal of Pharmaceutical Sciences, 98:362-377) with the following exceptions. For some mouse studies, cannulated animals were used and serial blood samples were collected from the individuals (n=2/compound/route of administration) as opposed to using a composite study design. In some iv rat studies, drugs were infused for 1 or 2 h and a single blood sample collected to estimate clearance assuming steady-state conditions (n=2/compound). This assay was employed as an initial PK screen to prioritize compounds for further study.
(§2) Rodent pharmacokinetic (PK) data were collected on the exemplified compounds according to the methods described above. In vivo clearance (Cl) data are reported as the average of 1 to 4 animals across 1 to 2 experiments and are categorized as follows. In rats, a ‘low’ clearance is designated as <17 mL/min/kg, a ‘moderate’ clearance is designated as 17-39 mL/min/kg, and a ‘high’ clearance is designated as >39 mL/min/kg. In mice, a ‘low’ clearance is designated as <30 mL/min/kg, a ‘moderate’ clearance is designated as 30-70 mL/min/kg, and a ‘high’ clearance is designated as >70 mL/min/kg. In vivo oral exposure (po) data, reported as average dose-normalized AUCs (DNAUC) per experiment of 2-3 animals, are categorized as ‘poor’ for DNAUC ≦101 ng·h/mL/mg/kg and ‘good’ for DNAUC >101 ng·h/mL/mg/kg. When multiple experiments were performed under different conditions, the totality of the data was considered. In cases where both ‘poor’ and ‘good’ oral exposures were observed, a designation of ‘mixed’ is utilized to represent mixed and unoptimized results.

[2] = Mouse pharmacokinetic study (iv clearance, oral exposure); type: in vivo; set-up: key to Mouse po DNAUC: ‘poor’ for DNAUC ≦101 ng·h/mL/mg/kg; ‘good’ for DNAUC >101 ng·h/mL/mg/kg; In cases where both ‘poor’ and ‘good’ oral exposures were observed, a designation of ‘mixed’ is utilized; conditions: for Mouse iv CI: in vivo clearance, average of 1 to 4 animals; for Mouse po DNAUC: dose-normalized AUC, 2-3 animals per experiment
Procedure: as §1, §2

SMILES	Rat iv CI [1]	Rat po DNAUC [1]	Mouse iv CI [2]	Mouse po DNAUC [2]
CCC(=O)N1CC[C@@H](Cc2nn(C)c(=O)n2-c2ccc(-c3ccc4cc(C)cnc4c3)cc2F)C1 [Example 7, (S)-4-(2-fluoro-4-(3-methylquinolin-7-yl)phenyl)-1-methyl-3-((1-propionylpyrrolidin-3-yl)methyl)-1H-1,2,4-triazol-5(4H)-one]	low (In rats, a ‘low’ clearance is designated as <17 mL/min/kg)	good (‘good’ for DNAUC >101 ng·h/mL/mg/kg)	low (In mice, a ‘low’ clearance is designated as <30 mL/min/kg)	good (‘good’ for DNAUC >101 ng·h/mL/mg/kg)
O=C(C1CC1)N1CC[C@@H](Cc2n[nH]c(=O)n2-c2ccc(-c3ccc4cc(F)cnc4c3)cc2F)C1 [Example 3, (S)-3-((1-(cyclopropanecarbonyl)pyrrolidin-3-yl)methyl)-4-(2-fluoro-4-(3-fluoroquinolin-7-yl)phenyl)-1H-1,2,4-triazol-5(4H)-one]	moderate (a ‘moderate’ clearance is designated as 17-39 mL/min/kg)	–	–	–
CCC(=O)N1CC[C@@H](Cc2n[nH]c(=O)n2-c2ccc(-c3ccc4cc(Cl)cnc4c3)cc2F)C1 [Example 6, (S)-4-(4-(3-chloroquinolin-7-yl)-2-fluorophenyl)-3-((1-propionylpyrrolidin-3-yl)methyl)-1H-1,2,4-triazol-5(4H)-one]	moderate (a ‘moderate’ clearance is designated as 17-39 mL/min/kg)	good (‘good’ for DNAUC >101 ng·h/mL/mg/kg)	low (In mice, a ‘low’ clearance is designated as <30 mL/min/kg)	mixed
O=C(C1CC1)N1CC[C@@H](Cc2n[nH]c(=O)n2-c2ccc(-c3ccc4cc(Cl)cnc4c3)cc2F)C1 [Example 2, (S)-4-(4-(3-chloroquinolin-7-yl)-2-fluorophenyl)-3-((1-(cyclopropanecarbonyl)pyrrolidin-3-yl)methyl)-1H-1,2,4-triazol-5(4H)-one]	moderate (a ‘moderate’ clearance is designated as 17-39 mL/min/kg)	good (‘good’ for DNAUC >101 ng·h/mL/mg/kg)	low (In mice, a ‘low’ clearance is designated as <30 mL/min/kg)	good (‘good’ for DNAUC >101 ng·h/mL/mg/kg)
CCC(=O)N1CC[C@@H](Cc2n[nH]c(=O)n2-c2ccc(-c3ccc4cccnc4c3)cc2F)C1 [#196 from WO2011/103546A1, 4-[2-fluoro-4-(7-quinolinyl)phenyl]-5-{[(3S)-1-propanoyl-3-pyrrolidinyl]methyl}-2,4-dihydro-3H-1,2,4-triazol-3-one, reference compound]	moderate (a ‘moderate’ clearance is designated as 17-39 mL/min/kg)	poor (‘poor’ for DNAUC ≦101 ng·h/mL/mg/kg)	moderate (a ‘moderate’ clearance is designated as 30-70 mL/min/kg)	poor (‘poor’ for DNAUC ≦101 ng·h/mL/mg/kg)
CCC(=O)N1CC[C@@H](Cc2nn(C)c(=O)n2-c2ccc(-c3ccc4cc(Cl)cnc4c3)cc2F)C1 [Example 8, (S)-4-(4-(3-chloroquinolin-7-yl)-2-fluorophenyl)-1-methyl-3-((1-propionylpyrrolidin-3-yl)methyl)-1H-1,2,4-triazol-5(4H)-one]	low (In rats, a ‘low’ clearance is designated as <17 mL/min/kg)	good (‘good’ for DNAUC >101 ng·h/mL/mg/kg)	low (In mice, a ‘low’ clearance is designated as <30 mL/min/kg)	good (‘good’ for DNAUC >101 ng·h/mL/mg/kg)
Cn1nc(C[C@@H]2CCN(C(=O)C3CC3)C2)n(-c2ccc(-c3ccc4cc(Cl)cnc4c3)cc2F)c1=O [Example 9, (S)-4-(4-(3-chloroquinolin-7-yl)-2-fluorophenyl)-3-((1-(cyclopropanecarbonyl)pyrrolidin-3-yl)methyl)-1-methyl-1H-1,2,4-triazol-5(4H)-one]	moderate (a ‘moderate’ clearance is designated as 17-39 mL/min/kg)	good (‘good’ for DNAUC >101 ng·h/mL/mg/kg)	low (In mice, a ‘low’ clearance is designated as <30 mL/min/kg)	–
O=C(C1CC1)N1CC[C@@H](Cc2n[nH]c(=O)n2-c2ccc(-c3ccc4cccnc4c3)cc2F)C1 [#124 from WO2011/103546A1, 5-{[(3S)-1-(cyclopropylcarbonyl)-3-pyrrolidinyl]methyl}-4-[2-fluoro-4-(7-quinolinyl)phenyl]-2,4-dihydro-3H-1,2,4-triazol-3-one, reference compound]	high (a ‘high’ clearance is designated as >39 mL/min/kg)	poor (‘poor’ for DNAUC ≦101 ng·h/mL/mg/kg)	moderate (a ‘moderate’ clearance is designated as 30-70 mL/min/kg)	poor (‘poor’ for DNAUC ≦101 ng·h/mL/mg/kg)
CCC(=O)N1CC[C@@H](Cc2n[nH]c(=O)n2-c2ccc(-c3ccc4cc(C)cnc4c3)cc2F)C1 [Example 5, (S)-4-(2-fluoro-4-(3-methylquinolin-7-yl)phenyl)-3-((1-propionylpyrrolidin-3-yl)methyl)-1H-1,2,4-triazol-5(4H)-one]	low (In rats, a ‘low’ clearance is designated as <17 mL/min/kg)	good (‘good’ for DNAUC >101 ng·h/mL/mg/kg)	low (In mice, a ‘low’ clearance is designated as <30 mL/min/kg)	mixed
CCC(=O)N1CC[C@@H](Cc2n[nH]c(=O)n2-c2ccc(-c3ccc4cc(F)cnc4c3)cc2F)C1 [Example 4, (S)-4-(2-fluoro-4-(3-fluoroquinolin-7-yl)phenyl)-3-((1-propionylpyrrolidin-3-yl)methyl)-1H-1,2,4-triazol-5(4H)-one]	low (In rats, a ‘low’ clearance is designated as <17 mL/min/kg)	poor (‘poor’ for DNAUC ≦101 ng·h/mL/mg/kg)	low (In mice, a ‘low’ clearance is designated as <30 mL/min/kg)	good (‘good’ for DNAUC >101 ng·h/mL/mg/kg)
Cc1cnc2cc(-c3ccc(-n4c(C[C@@H]5CCN(C(=O)C6CC6)C5)n[nH]c4=O)c(F)c3)ccc2c1 [Example 1, (S)-3-((1-(cyclopropanecarbonyl)pyrrolidin-3-yl)methyl)-4-(2-fluoro-4-(3-methylquinolin-7-yl)phenyl)-1H-1,2,4-triazol-5(4H)-one]	moderate (a ‘moderate’ clearance is designated as 17-39 mL/min/kg)	poor (‘poor’ for DNAUC ≦101 ng·h/mL/mg/kg)	low (In mice, a ‘low’ clearance is designated as <30 mL/min/kg)	good (‘good’ for DNAUC >101 ng·h/mL/mg/kg)
CCC(=O)N1CC[C@@H](Cc2nn(C)c(=O)n2-c2ccc(-c3ccc4cc(F)cnc4c3)cc2F)C1 [Example 10, (S)-4-(2-fluoro-4-(3-fluoroquinolin-7-yl)phenyl)-1-methyl-3-((1-propionylpyrrolidin-3-yl)methyl)-1H-1,2,4-triazol-5(4H)-one]	low (In rats, a ‘low’ clearance is designated as <17 mL/min/kg)	–	low (In mice, a ‘low’ clearance is designated as <30 mL/min/kg)	–
